Where two headings read alike, the source gives them in different places.

A word on the IC50: it is the concentration needed to halve the response being measured.

Assay [1] has as its system Colo205 cells. In words: In vitro proliferation inhibition test of small molecule compound (CTG, 6 days), Example 3.2. Type of assay: cell-based. The conditions noted are these: Homo sapiens, COLO 205, 144 h, read-out: Abs-IC50. As for the experimental part: (§1) To detect the inhibitory activity of the drug compound against the proliferation of NCI-N87 and Colo205 tumor cells in vitro. Cells were treated with different concentrations of the compound in vitro, after 6 days of culture, the proliferation of the cells was detected using CTG (CellTiter-Glo® Luminescent Cell Viability Assay, Promega, Cat. No.: G7558) reagent, and the in vitro activity of the compound was evaluated according to the IC50 values. • 1. Cell culture: NCI-N87/Colo205 cells were cultured with 10% FBS RPMI-1640 medium. • 2. Preparation of cells: the NCI-N87/Colo205 cells in the logarithmic growth phase were taken and washed once with PBS, and 2-3 ml of trypsin was then added for digestion for 2-3 min. After the cells were completely digested, 10-15 ml of cell culture medium was added to elute the digested cells, the cells were centrifuged at 1000 rpm for 5 min, the supernatant was discarded, and then 10-20 ml of cell culture medium was added to resuspend the cells to prepare a single cell suspension. • 3. Cell plating: the NCI-N87/Colo205 single cell suspensions were mixed uniformly, and respectively adjusted to a live cell density of 6×10^4 cells/ml with a cell culture medium, and the density-adjusted cell suspensions were mixed uniformly, and added to 96-well cell culture plates at 50 ul/well. The culture plates were cultured in an incubator for 18 hours (37° C., 5% CO2). • 4. Preparation of compound: the compound was dissolved in DMSO to formulate a stock solution with an initial concentration of 10 mM.
(§2) A total of 8 concentrations of the small molecule compound were involved: 300, 100, 30, 10, 3, 1, 0.3, and 0.1 nM, respectively. • 5. Sample loading operation: different concentrations of the formulated samples to be tested were added to culture plates, with two replicate wells for each sample. The culture plates were incubated in an incubator for 6 days (37° C., 5% CO2). • 6. Color development operation: the 96-well cell culture plates were taken out, 50 ul of CTG reagent was added to each well, and the plates were incubated for 10 minutes at room temperature. • 7. Plate reading operation: the 96-well cell culture plates were taken out, and placed in a microplate reader, and the chemiluminescence was determined using the microplate reader.
(§3) Data analysis: the data was processed and analyzed using Microsoft Excel and Graphpad Prism 5.

The subject of assay [2] is NCI-N87 cells. Described as above. Type of assay: cell-based. The settings on record: Homo sapiens, read-out: Abs-IC50. As to the method: as §1, §2, §3
Assay [3] relates to breast cancer cells JIMT-1 negative for B7H4 expression. In words: In vitro proliferation inhibition (3D cell culture, CTG). The settings on record: Homo sapiens, 144 h, JIMT-1, 3D culture, 6 days. The assay is classed as cell-based. As for the experimental part:
(§4) The cells in the logarithmic growth phase were collected and a cell culture medium was added to resuspend the cells to prepare a single cell suspension. The single cell suspension was adjusted to a live cell density of […], and 3.5 mL of the cell suspension was mixed uniformly with 6.5 mL of 1% methylcellulose, avoiding bubbles as much as possible. 90 μL of the cell suspension was added to each well of 96-well plates, and the plates were cultured overnight in an incubator with 5% CO2 at 37° C. On the second day of the experiment, the test article was diluted with a complete medium to obtain a 10× solution, 10 μL of the test article solution (the highest final concentration of 100 nM, 9 concentrations, 3-fold dilution) was added to each well, the complete medium was used as a blank control, and 3 replicate wells were set up; and the plates were incubated in the incubator at 37° C. for another 6 days. After the incubation was completed, the cell culture plates were taken out and equilibrated to room temperature, and 100 μL of CTG detection reagent (Promega, Cat #: G7573) was added to each well. The plates were shaken and mixed uniformly, then left to stand in the dark for 10 minutes, and then placed at room temperature for 30 minutes to stabilize the luminescence signal. Luminescence was read using EnVision. Using GraphPad Prism software, a sigmoidal dose-response curve was plotted by using a non-linear regression model, and the IC50 value was calculated. Cell viability calculation

Assay [4] deals with endometrial carcinoma cells RL95-2 with low expression of B7H4. The description is as above. The assay is classed as cell-based. The conditions noted are these: Homo sapiens, 144 h, RL95-2, 3D culture, 6 days. As for the experimental part:
as §4

In assay [5] the test system is human breast cancer cells MX-1 with high expression of B7H4. The description is as above. Type of assay: cell-based. The settings on record: 144 h, MX-1, 3D culture, 6 days. As to the method:
as §4

The target of assay [6] is T1, human B7H4 (human, UniProt Q7Z7D3 25-282).
T1 sequence (looked up): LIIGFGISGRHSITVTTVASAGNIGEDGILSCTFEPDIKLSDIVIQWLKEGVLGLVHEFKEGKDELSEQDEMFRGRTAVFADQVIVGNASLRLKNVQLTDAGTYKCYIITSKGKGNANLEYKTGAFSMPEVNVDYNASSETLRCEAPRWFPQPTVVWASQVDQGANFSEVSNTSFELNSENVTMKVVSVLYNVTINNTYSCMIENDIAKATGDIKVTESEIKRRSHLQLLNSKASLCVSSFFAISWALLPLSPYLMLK
In words: cell-based or functional assay.

Where [7] appears, read: highest concentration 100 nM, read-out: Max inh.

Turning to `CC[C@@]1(O)C(=O)OCc2c1cc1n(c2=O)Cc2c-1nc1cc(F)c(C)c3c1c2[C@@H](NC(=O)CCN)CC3` [Reference example 1, reference compound], the IC50 in assay [1] was more than 1000 nM; in assay [2] (NCI-N87, 144 h), more than 300 nM.

With `CC[C@@]1(O)C(=O)OCc2c1cc1n(c2=O)Cc2c-1nc1cc(F)c(C)c3c1c2[C@@H](NC(=O)C[C@H](C)O)CC3` [P-III-30], the IC50 in assay [1] (Colo205, 6 days, CTG) is 103 nM; in assay [2] (144 h, NCI-N87, 6 days, CTG), 6.5 nM; in assay [3], 24.3 nM; in assay [4], 0.843 nM; in assay [5] it was 1.77 nM. The figures for the inhibition at up to 0.1 µM in assay [3] (setting [7]), in assay [4] (setting [7]) and in assay [5] (setting [7]) were 71%, 95.1% and 84.5%, respectively.

B1: antibody-drug conjugate DB1001-X1 (antibody, DAR 3.89, V domains shown)
VH: QVQLVESGGGVVQPGRSLRLSCAASGFTFRSFGMHWVRQAPGKGLEWVAVISYDASNEYYADSVKGRFIISRDNSKDTLYLQMNSLRAGDTAVYYCAKGGALRWYFAYWGQGTLVTVSS
VL: EIVMTQSPATLSVSPGERATLSCRASQSISSNLGWYQQKPGQAPRLLIYGASTRATGIPARFSGSGSGTEFTLTISSLQSEDFAVYYCQQYRSWPPLTFGGGTKVEIKR
modifications: linker-cytotoxin X1 (payload P-II-3) coupled after TCEP reduction of the antibody; drug-to-antibody ratio (DAR) of 3.89; conjugation residues not stated
Turning to B1, the “IC50 (nM), in vitro proliferation inhibition of MDA-MB-468 cells (CTG, 7 days)” value in assay [6] was 30.3 nM.

These data come from patent publication US20250032630A1, “B7H4 ANTIBODY-DRUG CONJUGATE AND USE THEREOF” (Duality Biologics (Suzhou) Co., Ltd., priority 2022, published 2025).
